Source: patent publication JPH01254654A, “スルホン酸の誘導体及びその塩” (Dainippon Pharmaceutical Co Ltd, priority 1988, dated 1989)

Tests used:
[1] = intracerebroventricular or parenteral administration; cited from earlier work
[2] = Analgesic action on oral administration (mean writhing number; method of JP 62-270555); type: in vivo; conditions: 200mg/kg

Structure (SMILES) | analgesic action [1] | inhibition rate (analgesic action; (A-B) x 100/A, A: mean writhing number of control group, B: that of test substance group) [2]
O=C(O)CNC(=O)C(CS)Cc1ccccc1 (racemic) [チオルファン, ((It、L)−2−メルカプトメチル−3−フェニルプロピオニル〕グリシン] | 鎮痛作用を有する | 
CC(=O)SCC(CC1CN(Cc2ccccc2)CCO1)C(=O)Nc1ccc(S(=O)(=O)[O-])cc1.[Na+] (centres unmarked) [実施例1] |  | 61.6 χ
